Like-named read-outs stand apart in the source and are kept apart here.
Assays:
[1] = molecular target: T1, Human recombinant FGF-1 (Homo sapiens, UniProt P05230); assay: IC50 by STD-NMR, initial rates of the STD affinity factor (STD0-AF); type: binding; conditions: 600 MHz, 298 K; authors do not support validity of the result; read-out: IC50 (STD-NMR, STD0-AF method)
T1 construct: Human recombinant FGF-1 consisting of 141 residues; purchased Peprotech; host or cells: E. coli
Procedure: (§1) IC50 values using STD-NMR were calculated for compound 1 at different concentrations based on the initial rates of the affinity factor method (Figure 5). […] In this case, due to the electrostatic nature of the complex, the gap between the protein and the ligand protons is very large, yielding low magnetization transfer values. On other hand, the small binding constant implies a large consumption of trisaccharide due to the high concentration needed to complete a meaningful titration curve. This, together with the large amount of time needed to record the full series of experiments, forced us to consider another method for the estimation of the IC50. Thus, we explored the IC50 calculation using selective T1 at different concentrations (Figure 6). Nevertheless, they are in agreement with the values obtained by Yu-Peng et al., when performing the same measure with disaccharides and FGF-2 by ITC [18].
STD-NMR Experiments. […]
IC50 was obtained using the initial rates of the STD affinity factor approximation. The STD-AF initial slopes (STD-AF0) were calculated as before from the curve of STD-AF vs. saturation time at several ligand concentrations. From these initial slopes, the binding isotherm was built (STD-AF0 vs. ligand concentration), and the curve fitted to a Langmuir equation, from which the IC50 value was determined.

[2] = molecular target: T1, Human recombinant FGF-1; assay: IC50 by selective T1 (T1sel) NMR at different ligand concentrations; type: binding; conditions: T1sel method; 20 μM protein, ligand 80-640 μM
Procedure: as §1
Selective T1 NMR experiments. The samples were prepared using the same buffer at 20 μM protein concentration, while ligand concentration was 80, 160, 320, 480 and 640 μM. The ratios between protein and ligand were then 1:4, 1:8, 1:16, 1:24 and 1:32, respectively. We carry out studies on ^1H longitudinal relaxation rate (1/T1(sel). The relaxation times were measured by inversion recovery pulse sequence.
To determine the IC50, we adjusted the experimental values of the intensity signals vs. recovery delays to obtain an exponential function. We obtained the selective T1 value by f(t) = I0 × [1 − a × exp (−t/T1)]. In a ligand-receptor system where the ligand is present in large excess over the receptor binding sites, the ligand relaxation rate is describe by 1/T1obs = 1/T1free + fbound/(T1bound + tbound), where fbound is the fraction bound ([PL]/[L]) and τbound is the lifetime of the bound state. The relationship between total ligand concentration and T1 is then [P]0T1obs = ([L]0 + IC50)(T1bound + τbound), and a plot of [P]0 T1obs versus [L]0 gives a straight line with IC50 obtained from the intercept of the x axis.

[3] = molecular target: T1, Human recombinant FGF-1; assay: STD-NMR initial growth rates (STD0) of trisaccharides in presence of FGF-1; type: binding; conditions: for STD0 H1-C: anomeric proton of ring C, 600 MHz, 289 K, protein 19 µM, ligand 1.6 mM; for Relative STD0 H1-A / Relative STD0 H1-B / Relative STD0 H1-C: relative to largest anomeric STD0 of the compound (=100)
Description: STD-NMR [30] studies were acquired for all the trisaccharides in the library in presence of FGF-1 using the same experimental conditions (see material and methods). Transference of saturation for all trisaccharides probed the interaction with the protein. Nevertheless, in contrast to the case of Langerin interaction, the results differed between the different compounds, indicating the existence of some differences in binding. Unfortunately, the spectral crowding only allowed us to accurately integrate the three anomeric signals along the saturation times, see Figure 3. Using a methodology previously described for disconnect the effect from proton relaxation on the STD values at a given time, the values of the initial rate of growth of STD (STD0) for the considered signals were obtained for the signals under consideration (Figure 4, Table 1). The distribution of magnetization along the trisaccharide chain is rather homogeneous, and is compatible with an extended interaction along the positive cleft of FGF-1, where the main binding site is located.
STD-NMR Experiments. All the samples were prepared in 250 μL 5 mM phostate buffer at pH 6.0 and 100 mM NaCl in 99.9% D2O. The concentration of the protein was 19 µM, and the ligand was 1.6 mM. The ratio between the protein and ligand was 1:84. The experiments were performed at 289 K. STD-NMR experiments were carried out with spin-lock to suppress protein signals. Moreover, we tried to suppress the solvent using excitation sculpting with gradients, and we used a shaped pulse train for saturation, alternating between on and off resonance. The on-resonance and off-resonance frequencies were set to 0.7 and 40 ppm, respectively. A spoil sequence was used to destroy unwanted magnetization. The saturation times were 0.5, 1, 2, 3 and 4 s, with an additional delay set to 3.6, 3.1, 2.1, 1.1 and 0.1, respectively, in order to keep the relaxation delay constant at […] for all experiments. STD NMR experiments were performed with 2048 scans with a total experimental time for every point of 5 h.
The STD initial rates (STD0) were calculated from the curve of STD vs. saturation time. To do so, we utilized the equation: STD0(t) = a [1 − exp (−bt)], where a represents the asymptotic maximum of the STD build-up curve (STDmax), b is a rate constant that depends on the relaxation properties of a given proton that measures the rate of the STD build-up (Ksat), and t is the saturation time (tsat). The STD0 values were obtained as the product of the ab coefficients.

[4] = molecular target: T1, Human recombinant FGF-1; assay: as above; type: binding; conditions: 600 MHz, 289 K, protein 19 µM, ligand 1.6 mM; for STD0 H1-A: anomeric proton of ring A; for STD0 H1-B: anomeric proton of ring B
[5] = molecular target: WGA (Wheat Germen Agglutinin); conditions: reported value, no reference given; cited from earlier work
[6] = molecular target: WGA (Wheat Germen Agglutinin); assay: T1sel validation assay: binding of GlcNAc to WGA; conditions: T1sel method; lectin 20 uM; preliminary assay
Procedure: page 7: Calculation of Binding Constants using T1sel. We have used the T1sel method for the evaluation of the KD binding. In order to assess the validity of the method we performed a preliminary assay using the known system of the binding of GlcNAc to WGA (Wheat […] Agglutinin) using a concentration of lectin of 20 uM. […] T1sel method is described in the experimental section of the main paper. (1 picture or pasted object on this page, not shown here)

T1 sequence (P05230 with tags, fused parts or gaps limits assumed): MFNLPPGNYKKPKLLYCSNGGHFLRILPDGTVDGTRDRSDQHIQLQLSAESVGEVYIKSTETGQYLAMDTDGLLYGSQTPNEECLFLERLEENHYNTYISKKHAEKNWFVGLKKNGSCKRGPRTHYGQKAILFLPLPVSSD

IC50 [1] | IC50 [2] | STD0 H1-C [3] | Relative STD0 H1-A [3] | Relative STD0 H1-B [3] | Relative STD0 H1-C [3] | STD0 H1-A [4] | STD0 H1-B [4] | Kd [6] | SMILES | Kd [5]
1700 ± 10 µM | 49.2 ± 0.3 µM | 0.42 | 66 | 80 | 100 | 0.28 | 0.34 |  | CC(C)O[C@H]1O[C@H](COS(=O)(=O)O)[C@@H](O[C@@H]2O[C@@H](C(=O)O)[C@@H](O[C@H]3O[C@H](COS(=O)(=O)O)[C@@H](O)[C@H](O)[C@H]3NS(=O)(=O)O)[C@H](O)[C@H]2OS(=O)(=O)O)[C@H](O)[C@H]1NS(=O)(=O)O [Compound 1] | 
 | 26.1 ± 0.7 µM | 0.24 | 31 | 100 | 68 | 0.11 | 0.36 |  | CC(=O)N[C@H]1[C@@H](OC(C)C)O[C@H](COS(=O)(=O)O)[C@@H](O[C@@H]2O[C@@H](C(=O)O)[C@@H](O[C@H]3O[C@H](COS(=O)(=O)O)[C@@H](O)[C@H](O)[C@H]3NS(=O)(=O)O)[C@H](O)[C@H]2OS(=O)(=O)O)[C@@H]1O [Compound 2] | 
 | 15.4 ± 0.4 µM | 0.20 | 72 | 100 | 88 | 0.17 | 0.23 |  | CC(C)O[C@H]1O[C@H](COS(=O)(=O)O)[C@@H](O[C@@H]2O[C@@H](C(=O)O)[C@@H](O[C@H]3O[C@H](CO)[C@@H](O)[C@H](O)[C@H]3NS(=O)(=O)O)[C@H](O)[C@H]2OS(=O)(=O)O)[C@H](O)[C@H]1NS(=O)(=O)O [Compound 3] | 
1700 µM | 84.7 ± 0.4 µM | 0.24 | 67 | 100 | 94 | 0.17 | 0.25 |  | CC(=O)N[C@H]1[C@@H](OC(C)C)O[C@H](COS(=O)(=O)O)[C@@H](O[C@@H]2O[C@@H](C(=O)O)[C@@H](O[C@H]3O[C@H](CO)[C@@H](O)[C@H](O)[C@H]3NS(=O)(=O)O)[C@H](O)[C@H]2OS(=O)(=O)O)[C@@H]1O [Compound 4] | 
 | 50.6 ± 0.1 µM | 0.06 | 100 | 82 | 87 | 0.07 | 0.06 |  | CC(C)O[C@H]1O[C@H](CO)[C@@H](O[C@@H]2O[C@@H](C(=O)O)[C@@H](O[C@H]3O[C@H](COS(=O)(=O)O)[C@@H](O)[C@H](O)[C@H]3NS(=O)(=O)O)[C@H](O)[C@H]2OS(=O)(=O)O)[C@H](O)[C@H]1NS(=O)(=O)O [Compound 5] | 
 | 181 ± 5.5 µM | 0.12 | 62 | 100 | 94 | 0.08 | 0.12 |  | CC(=O)N[C@H]1[C@@H](OC(C)C)O[C@H](CO)[C@@H](O[C@@H]2O[C@@H](C(=O)O)[C@@H](O[C@H]3O[C@H](COS(=O)(=O)O)[C@@H](O)[C@H](O)[C@H]3NS(=O)(=O)O)[C@H](O)[C@H]2OS(=O)(=O)O)[C@@H]1O [Compound 6] | 
 | 46.7 ± 0.9 µM | 0.11 | 100 | 48 | 64 | 0.18 | 0.08 |  | CC(C)O[C@H]1O[C@H](CO)[C@@H](O[C@@H]2O[C@@H](C(=O)O)[C@@H](O[C@H]3O[C@H](CO)[C@@H](O)[C@H](O)[C@H]3NS(=O)(=O)O)[C@H](O)[C@H]2OS(=O)(=O)O)[C@H](O)[C@H]1NS(=O)(=O)O [Compound 7] | 
 | 132 ± 1.8 µM | 0.19 |  | 99 | 100 |  | 0.18 |  | CC(=O)N[C@H]1[C@@H](OC(C)C)O[C@H](CO)[C@@H](O[C@@H]2O[C@@H](C(=O)O)[C@@H](O[C@H]3O[C@H](CO)[C@@H](O)[C@H](O)[C@H]3NS(=O)(=O)O)[C@H](O)[C@H]2OS(=O)(=O)O)[C@@H]1O [Compound 8] | 
 |  |  |  |  |  |  |  | 2100 µM | CC(=O)N[C@H]1C(O)O[C@H](CO)[C@@H](O)[C@@H]1O (stereo partly shown) [GlcNAc] | 2500 µM
